pIC50: −log10 of the molar value.
How the values were obtained:
rat cerebral bNOS = assay: inhibition of bNOS activity (nitrite production, Griess reaction); format: biochemical; conditions: for bNOS Inhibition, % Inhib: 15 min, average of 4 wells; for pIC50: approximately, FIG. 1; for specificity/selectivity of bNOS inhibition: at the concentrations tested, conclusion in words
Procedure: Rat cerebral bNOS in working buffer was incubated with L-arginine and the nitrites produced after 15 minutes were measured using the Griess reaction. Results are presented as the % inhibition of bNOS activity as compared to a negative control (0% inhibition) and positive control (100% inhibition). Each point represents the average inhibition ± standard deviation of 4 wells.
Marine-derived imidazole and indole containing compounds were tested for their ability to inhibit rat cerebral NOS at a concentration range of 1.0 to 50 μM.
Evaluation of activity of bNOS was performed by measuring nitrite production using the Griess reaction (Greenberg, S. S., J. Xie, J. J. Spitzer, J. F. Wang, J. Lancaster, M. B. Grisham, D. R. Powers, T. D. Giles [1995] Life Sci. 57:1949-1961) following an incubation of purified bNOS with L-arginine according to the methods of Ohshima et al. (Ohshima, H., S. Oguchi, H. Adachi, S. Iida, H. Suzuki, T. Sugimura, H. Esumi [1992] Biochem. Biophys. Res. Comm. 183:238-244). All reactions were carried out in 96 well microtiter plates. Briefly, imidazole and indole compounds were tested in reaction buffer (80 mM HEPES, pH 7.3; 1.0 mM EDTA; 1.5 mM CaCl2) containing calmodulin (330 units/ml; Sigma Chemical Co.), dithiothreitol (1.3 mM), tetrahydrobiopterin (66 μM; Sigma), flavin adenine dinucleotide (16 μM; Sigma), and bovine brain nitric oxide synthase (1.67 units/ml; Sigma). The solutions were mixed and equilibrated at 37° C. for 2 minutes prior to the addition of L-arginine (113 μM; Sigma) and NADPH (200 μM; Sigma). Final reaction volume was 150 μl per well. The enzymatic reaction occurred at 37° C. for 15 minutes and nitrite formation detected by the addition of 100 μl of Greiss's reagent (1% sulfanilamide, 0.15% n-1-(naphthyl)-ethylenediamine dihydrochloride, 2.5% phosphoric acid; Sigma) and the color intensity determined by spectrophotometric absorbance at 540 nm (Spectra II; Tecan US Inc., Durham, N.C.).

calcineurin = calcineurin (Homo sapiens, UniProt Q08209); assay: inhibition of calcineurin activity (PNPP dephosphorylation); format: biochemical; conditions: for inhibition of calcineurin activity: at concentrations below 50 μM; for pIC50: PNPP substrate, 30° C., 1 hour; for potency on calcineurin compared with bNOS: comparison of IC50 for calcineurin and bNOS
Procedure: Inhibition of calcineurin, a calmodulin-dependent enzyme (Klee, C. B., H. Ren, X. Wang [1998] J. Biol. Chem. 273:13367-13370), by marine-derived imidazoles and indoles was tested as an indirect means of assessing the effect of these compounds on calmodulin. […] Neither hamacanthin-A nor dragmacidin were able to inhibit calcineurin activity by more than 33% at concentrations below 50 μM.
Calcineurin activity was measured by the colorimetric method based on the dephosphorylation of p-nitrophenyl phosphate (PNPP) (Greenberg, S. S., J. Xie, J. J. Spitzer, J. F. Wang, J. Lancaster, M. B. Grisham, D. R. Powers, T. D. Giles [1995] Life Sci. 57:1949-1961) in a buffer of 0.5 mM MnCl2, 1 mM dithiothreitol, 50 mM tris base (pH 7.5), 0.05 mM CaCl2, and 10 μg/ml calmodulin (Sigma). Briefly, marine-derived compounds in ethanol were transferred to 96-well plates, air dried and resuspended in the working buffer. Calcineurin was added to a final concentration of 2.75 μg protein/ml and the enzyme allowed to equilibrate at 30° C. for 10 minutes prior to the addition of substrate. PNPP was added (final concentration≈50 mM) and the reaction mixture incubated at 30° C. for 1 hour. The optical density was measured at 405 nm in a Spectra II spectrophotometer.

[1] = target: T1, iNOS (murine macrophage RAW 264.7 cells) (Mus musculus, UniProt P29477); assay: inhibition of whole cell iNOS activity in LPS/IFN-γ stimulated RAW 264.7 cells (nitrites, Griess reaction); format: cell-based; conditions: RAW264.7, 24 hours, average of 4 wells, read-out: iNOS Inhibition, % Inhibit
T1 construct: host or cells: RAW 264.7
Procedure: Resultant nitrites in the TCM were measured by the Griess reaction and compared to stimulated cells incubated in the absence of test compound (0% inhibition) and unstimulated cells (100% inhibition). Each point represents the average inhibition of 4 wells±standard deviation.
Inhibition of whole cell iNOS activity by hamacanthin-A, dragmacidin and dragmacidin-D was tested to determine the specificity of the NOS inhibitory actions of these compounds.
RAW 264.7 cells were obtained from the American Type Culture Collection (Rockville, Md.) and maintained in tissue culture medium (TCM) (RPMI 1640 medium containing 100 U/ml penicillin, 100 μg/ml streptomycin, 60 μg/ml L-glutamine, 18 mM HEPES, 0.05 mg/ml gentamicin; Life Technologies, Gaithersburg, Md.) and supplemented with 10% rehatuin fetal bovine serum (Intergen Co., Purchase, N.Y.). Cells were subcultured at 3-4 day intervals, and used within 20 passages from the initial stock culture.
Test compounds were diluted in ethanol, aliquoted into appropriate wells of a 96 well microtiter plate and allowed to air dry for 1 hour at room temperature. RAW 264.7 cells were then subcultured into each well at a density of 5×10^4 cells/well in 200 μl of TCM containing lipopolysaccharide (1 ng/ml; Sigma) and interferon-γ (2 units/ml; PharMingen, San Diego, Calif.). Plates were incubated at 37° C., 5% CO2 for 24 hours. 150 μl of the TCM from each well was transferred to a second microtiter plate, 100 μl Griess reagent added to this TCM and the color intensity determined as above. Viability of the cells was determined by the methods of Mossman (Mossman, T. [1983] J. Immunol. Methods 65:55-63). Briefly, 150 μl of TCM containing 3-[4,5-dimethylthiazol-2-yl]-2,5-diphenyltetrazolium bromide (MTT, 2.5 mg/ml; Sigma) was added to each well containing the RAW 264.7 cells and incubated at 37° C., 5% CO2 for 3 hours. The medium was removed from all wells and replaced with 200 μl of acidified isopropyl alcohol (0.2% HCl). The plates were shaken for 15 minutes and the presence of the blue formazan was detected using a Spectra II spectrophotometer set at 570 nm and with a 650 nm reference filter.

Compound	pIC50 (rat cerebral bNOS)	inhibition of calcineurin activity (calcineurin)	inhibition at 2.5 µM [1]	inhibition at 5 µM [1]	inhibition at 10 µM [1]	inhibition at 25 µM [1]	inhibition at 50 µM [1]	pIC50 (calcineurin)	bNOS Inhibition, % Inhib (rat cerebral bNOS; 1 μM)	bNOS Inhibition, % Inhib (rat cerebral bNOS; 5 μM)	bNOS Inhibition, % Inhib (rat cerebral bNOS; 10 μM)	bNOS Inhibition, % Inhib (rat cerebral bNOS; 50 μM)	specificity/selectivity of bNOS inhibition (rat cerebral bNOS)	potency on calcineurin compared with bNOS (calcineurin)	inhibitory effects on the production of NO (bNOS) (rat cerebral bNOS; 1.0 to 50 μM)
Brc1ccc2c(-c3c[nH]c(-c4c[nH]c5ccccc45)n3)c[nH]c2c1 [Nortopsentin-C, nortopsentin-C]	~4.57	–	–	–	–	–	–	4.94	20.16%	9.88%	16.05%	98.77%	not able to selectively inhibit rat cerebral bNOS	a concentration lower than its IC50 for bNOS	–
O=C(c1nc(-c2c[nH]c3ccccc23)c[nH]1)c1c[nH]c2cc(O)ccc12 [Topsentin, topsentin]	–	–	–	–	–	–	–	–	5.08%	5.47%	-0.39%	22.66%	not able to selectively inhibit rat cerebral bNOS	–	minimal inhibitory effects

The remaining compounds from weak to strong by pIC50 (rat cerebral bNOS), led by results:

pIC50 (rat cerebral bNOS)	inhibition of calcineurin activity (calcineurin)	inhibition at 2.5 µM [1]	inhibition at 5 µM [1]	inhibition at 10 µM [1]	inhibition at 25 µM [1]	inhibition at 50 µM [1]	pIC50 (calcineurin)	Compound	bNOS Inhibition, % Inhib (rat cerebral bNOS; 1 μM)	bNOS Inhibition, % Inhib (rat cerebral bNOS; 5 μM)	bNOS Inhibition, % Inhib (rat cerebral bNOS; 10 μM)	bNOS Inhibition, % Inhib (rat cerebral bNOS; 50 μM)	specificity/selectivity of bNOS inhibition (rat cerebral bNOS)	potency on calcineurin compared with bNOS (calcineurin)	inhibitory effects on the production of NO (bNOS) (rat cerebral bNOS; 1.0 to 50 μM)
~4.70	≤ 33%	-3.94%	-8.44%	-6.23%	3.16%	15.8%	–	CN1C[C@H](c2c[nH]c3c(Br)c(Br)cc(O)c23)NC[C@H]1c1c[nH]c2cc(Br)ccc12 (relative stereo) [Dragmacidin, dragmacidin]	38.94%	3.54%	32.74%	90.27%	able to specifically block the activity of bNOS	–	–
~5.12	≤ 33%	2.6%	-0.61%	0.69%	0.65%	5.54%	–	O=C1NC(c2c[nH]c3cc(Br)ccc23)CN=C1c1c[nH]c2cc(Br)ccc12 (stereo not drawn) [Hamacanthin-A, hamacanthin-A]	35.42%	43.33%	75.42%	99.58%	able to specifically block the activity of bNOS	–	–
~5.40	–	-3.55%	-3.42%	-0.61%	2.34%	26.9%	5.00	CC(c1cnc(N)[nH]1)c1ccc(O)c2[nH]cc(-c3cnc(-c4c[nH]c5cc(Br)ccc45)c(=O)[nH]3)c12 (stereo not drawn) [Dragmacidin-D, dragmacidin-D]	16.89%	74.22%	96.44%	99.56%	able to specifically block the activity of bNOS	a more potent inhibitor of bNOS	–
